# Data as given in patent US9096591B2, “Tetracyclic compounds” (Medivation Technologies, Inc., priority 2007, dated 2015).
# Like-named read-outs stand apart in the source and are kept apart here.
# How the values were obtained:
# [1] = target: T1, human recombinant histamine H1 receptor (Homo sapiens, UniProt P35367); test: Histamine H1 radioligand binding ([3H]Pyrilamine); details: for inhibition at 0.03 µM: 0.03 μM compound; for inhibition at 0.1 µM: 0.1 μM compound
# T1 construct: expressed in transfected cells; host or cells: CHO cells
# T1 sequence (P35367 whole entry): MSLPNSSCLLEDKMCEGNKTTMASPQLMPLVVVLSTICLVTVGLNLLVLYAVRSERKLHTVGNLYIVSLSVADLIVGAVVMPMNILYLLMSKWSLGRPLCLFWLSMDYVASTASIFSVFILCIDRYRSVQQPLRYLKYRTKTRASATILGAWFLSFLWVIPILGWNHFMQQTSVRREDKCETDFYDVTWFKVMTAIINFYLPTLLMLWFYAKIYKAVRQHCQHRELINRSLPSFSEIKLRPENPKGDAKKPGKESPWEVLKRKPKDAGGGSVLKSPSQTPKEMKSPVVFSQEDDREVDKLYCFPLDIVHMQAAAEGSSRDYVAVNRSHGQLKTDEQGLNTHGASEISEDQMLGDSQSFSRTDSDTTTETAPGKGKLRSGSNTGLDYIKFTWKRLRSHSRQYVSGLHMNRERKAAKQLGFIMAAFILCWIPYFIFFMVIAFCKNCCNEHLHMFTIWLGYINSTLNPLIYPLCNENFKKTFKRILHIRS
# Procedure, shortened: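 CHO-expressed receptor in modified Tris-HCl buffer (50 mM, pH 7.4; 2 mM MgCl2, 100 mM NaCl, 250 mM sucrose); bound ligand measured after filtration and washing.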
# [2] = target: T2, human recombinant adrenergic α2A receptor (Homo sapiens, UniProt P08913); test: Adrenergic α2A radioligand binding ([3H]MK-912); parameters: Inhibition of ligand binding, Adren. alpha2A: concentration or dose not given beside the values; details: for Inhibition of ligand binding, Adren. alpha2A: percent inhibition of specific binding
# T2 construct: expressed in transfected cells; host or cells: insect Sf9 cells
# T2 sequence (P08913 1-465): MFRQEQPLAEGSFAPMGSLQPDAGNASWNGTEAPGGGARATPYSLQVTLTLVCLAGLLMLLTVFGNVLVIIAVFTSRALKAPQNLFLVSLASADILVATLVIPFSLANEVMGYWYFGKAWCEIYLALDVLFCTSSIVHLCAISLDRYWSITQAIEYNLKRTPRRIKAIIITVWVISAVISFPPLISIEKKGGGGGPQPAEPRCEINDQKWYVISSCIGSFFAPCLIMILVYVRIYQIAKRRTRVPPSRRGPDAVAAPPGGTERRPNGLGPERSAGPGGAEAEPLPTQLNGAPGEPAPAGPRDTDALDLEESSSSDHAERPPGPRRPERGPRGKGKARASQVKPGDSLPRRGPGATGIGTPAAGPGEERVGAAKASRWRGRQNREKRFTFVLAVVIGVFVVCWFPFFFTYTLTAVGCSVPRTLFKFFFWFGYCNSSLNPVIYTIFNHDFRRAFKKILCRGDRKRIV
# Protocol: To evaluate in radioligand binding assays the activity of compounds of the invention, human recombinant adrenergic α2A receptor expressed in insect Sf9 cells (Uhlen S et al. J Pharmacol Exp Ther. 271:1558, 1994) in a modified Tris-HCl buffer (50 mM Tris-HCl, pH 7.4, 12.5 mM MgCl2, 2 mM EDTA) was used. Compounds of invention were incubated with 1 nM [^3H]MK-912 for 60 minutes at 25° C. MK912 is (2S-trans)-1,3,4,5′,6,6′,7,12b-octahydro-1′,3′-dimethyl-spiro[2H-benzofuro[2,3-a]quinolizine-2,4′(1′H)-pyrimidin]-2′(3′H)-one hydrochloride Non-specific binding was estimated in the presence of 10 μM WB-4101 (2-(2,6-Dimethoxyphenoxyethyl)aminomethyl-1,4-benzodioxane hydrochloride). Receptor proteins were filtered and washed, the filters were then counted to determine [^3H]MK-912 specifically bound. […] Biochemical assay results are presented as the percent inhibition of specific binding in Table 6.
# [3] = target: T3, human recombinant serotonin (5-Hydroxytryptamine) 5-HT6 receptor (Homo sapiens, UniProt P50406); test: Serotonin 5-HT6 radioligand binding ([3H]LSD); parameters: Inhibition of ligand binding, Ser. 5-HT6: concentration or dose not given beside the values; details: for Inhibition of ligand binding, Ser. 5-HT6: percent inhibition of specific binding
# T3 construct: expressed in transfected cells; host or cells: human HeLa cells
# T3 sequence (P50406 whole entry): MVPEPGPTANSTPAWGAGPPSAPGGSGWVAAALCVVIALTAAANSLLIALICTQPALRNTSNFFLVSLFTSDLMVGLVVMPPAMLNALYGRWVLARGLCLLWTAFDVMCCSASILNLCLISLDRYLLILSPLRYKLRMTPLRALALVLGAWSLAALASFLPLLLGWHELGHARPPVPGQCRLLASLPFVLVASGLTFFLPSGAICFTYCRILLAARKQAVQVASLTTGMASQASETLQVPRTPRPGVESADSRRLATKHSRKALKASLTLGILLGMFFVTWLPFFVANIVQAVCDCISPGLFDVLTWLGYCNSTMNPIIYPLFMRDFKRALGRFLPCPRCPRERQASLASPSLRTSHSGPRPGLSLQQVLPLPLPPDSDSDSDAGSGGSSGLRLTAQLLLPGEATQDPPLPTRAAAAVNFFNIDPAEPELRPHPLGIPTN
# Description: Receptor proteins were filtered and washed, the filters were then counted to determine [3H]LSD specifically bound. […] Biochemical assay results are presented as the percent inhibition of specific binding in Table 6.
# [4] = 1 μM compound, […] [3H]Pyrilamine, read-out: Histamine Binding H1, percent inhibition of specific binding
# [5] = percent inhibition of specific binding, screened at 1 μM, read-out: Inhibition of ligand binding, Hist. H1
# [6] = […] [3H]Pyrilamine, read-out: Histamine Binding H1, percent inhibition of specific binding
SMILES,"inhibition at 1 µM [1, 4]","inhibition at 1 µM [1, 5]","Inhibition of ligand binding, Adren. alpha2A [2]","Inhibition of ligand binding, Ser. 5-HT6 [3]","inhibition at 0.03 µM [1, 6]","inhibition at 0.1 µM [1, 6]","inhibition at 1 µM ([1]; compounds screened at 1 μM, read-out: Inhibition of ligand binding, Hist. H1 (percent inhibition of specific binding))","inhibition at 1 µM ([2]; compounds screened at 1 μM, read-out: Inhibition of ligand binding, Adren. alpha2A (percent inhibition of specific binding))","inhibition at 1 µM ([3]; compounds screened at 1 μM, read-out: Inhibition of ligand binding, Ser. 5-HT6 (percent inhibition of specific binding))"
CC1CN(C(=O)Cn2c3c(c4cc(Cl)ccc42)CN(C)CC3)CC(C)N1 (centres unmarked) [Compound 245],22%,22%,8%,−2%,–,–,–,–,–
"CCN1CCc2c(c3cc(C)ccc3n2CCc2ccncc2)C1 [Compound 27, 2-ethyl-2,3,4,5-tetrahydro-8-methyl-5-(2-(pyridin-4-yl)ethyl)-1H-pyrido[4,3-b]indole]",99%,99%,53%,38%,58%,77%,–,–,–
Cc1ccc2c(c1)c1c(n2CCc2ccc(CO)nc2)CCN(C)C1 [Compound 267],–,96%,49%,69%,–,–,–,–,–
"CN1CCc2c(c3cc(Cl)ccc3n2CCC(=O)N2CCCCC2)C1 [Compound 326, 3-(8-chloro-1,2,3,4-tetrahydro-2-methylpyrido[4,3-b]indol-5-yl)-1-(piperidin-1-yl)propan-1-one]",–,47%,55%,26%,–,–,–,–,–
"COc1ccc(CCn2c3c(c4cc(Cl)ccc42)CN(C)CC3)cc1 [Compound 336, 8-Chloro-5-[2-(4-methoxy-phenyl)-ethyl]-2-methyl-2,3,4,5-tetrahydro-1H pyrido[4,3-b]indole]",–,107%,96%,104%,–,–,–,–,–
COc1ccc(CCn2c3c(c4cc(C)ccc42)CN(C)CC3)cc1 [Compound 247],100%,100%,99%,107%,–,–,–,–,–
"CN1CCc2c(c3ccncc3n2CCc2ccccn2)C1 [Compound 481, 7-aza-2-methyl-5-(2-(pyridin-2-yl)ethyl)-2,3,4,5-tetrahydro-1H-pyrido[4,3-b]indole]",–,–,–,–,–,–,4%,3%,14%
"CN1CCc2c(c3cc(Cl)ccc3n2CC(=O)N2CCOCC2)C1 [Compound 238, 2-(8-chloro-1,2,3,4-tetrahydro-2-methylpyrido[4,3-b]indol-5-yl)-1-morpholinoethanone]",26%,26%,−13%,5%,–,–,–,–,–
"Cc1ccc(CCn2c3c(c4cc(C)ccc42)CN(C)CC3)cc1 [Compound 25, 2,3,4,5-tetrahydro-2,8-dimethyl-5-(4-methylphenethyl)-1H-pyrido[4,3-b]indole]",97%,97%,99%,103%,71%,89%,–,–,–
"Cc1ccc2c(c1)c1c(n2CCCc2ccc(C(F)(F)F)nc2)CCN(C)C1 [Compound 331, 5-(3-(6-(trifluoromethyl)pyridin-3-yl)propyl)-2,3,4,5-tetrahydro-2,8-dimethyl-1H-pyrido[4,3-b]indole]",–,102%,50%,100%,–,–,–,–,–
"CN1CCc2c(c3cc(Cl)ccc3n2CCC(=O)N2CCOCC2)C1 [Compound 328, 3-(8-chloro-1,2,3,4-tetrahydro-2-methylpyrido[4,3-b]indol-5-yl)-1-morpholinopropan-1-one]",–,56%,45%,29%,–,–,–,–,–
"CN1CCc2c(c3cc(Cl)ccc3n2CC(=O)N2CCSCC2)C1 [Compound 239, 2-(8-chloro-1,2,3,4-tetrahydro-2-methylpyrido[4,3-b]indol-5-yl)-1-thiomorpholinoethanone]",50%,50%,0%,8%,–,–,–,–,–
"Cc1ccc2c(c1)c1c(n2CCc2cnc(C)cn2)CCN(C)C1 [Compound 322, 2,8-dimethyl-5-(2-(5-methylpyrazin-2-yl)ethyl)-2,3,4,5-tetrahydro-1H-pyrido[4,3-b]indole]",–,89%,44%,75%,–,–,–,–,–
"Cc1ccc2c(c1)c1c(n2CC(=O)N2CCOCC2)CCN(C)C1 [Compound 330, 2-(1,2,3,4-tetrahydro-2,8-dimethylpyrido[4,3-b]indol-5-yl)-1-morpholinoethanone]",–,8%,1%,19%,–,–,–,–,–
"COc1ccc(CCn2c3c(c4cc(Cl)ccc42)CN(C)CC3)cc1F [Compound 337, 5-(3-fluoro-4-methoxyphenethyl)-8-chloro-2,3,4,5-tetrahydro-2-methyl-1H-pyrido[4,3-b]indole]",–,99%,97%,104%,–,–,–,–,–
"CCOc1ccc(CCn2c3c(c4cc(C)ccc42)CN(C)CC3)cc1 [Compound 334, 5-[2-(4-Ethoxy-phenyl)-ethyl]-2,8-dimethyl-2,3,4,5-tetrahydro-1H-pyrido[4,3-b]indole]",–,99%,101%,101%,–,–,–,–,–
CN1CCc2c(c3cc(Cl)ccc3n2CC(=O)N2CCNC(=O)C2)C1 [Compound 246],18%,18%,21%,2%,–,–,–,–,–
"CN1CCc2c(c3cc(Cl)ccc3n2CCC(=O)N2CCCC2)C1 [Compound 240, 3-(8-chloro-1,2,3,4-tetrahydro-2-methylpyrido[4,3-b]indol-5-yl)-1-(pyrrolidin-1-yl)propan-1-one]",60%,60%,36%,25%,–,–,–,–,–
"CN1CCc2c(c3cc(Cl)ccc3n2CC(=O)N2CCCCC2)C1 [Compound 236, 2-(8-chloro-1,2,3,4-tetrahydro-2-methylpyrido[4,3-b]indol-5-yl)-1-(piperidin-1-yl)ethanone]",42%,42%,0%,18%,–,–,–,–,–
CN1CCc2c(c3cc(Cl)ccc3n2CC(=O)N2CCNCC2)C1 [Compound 244],15%,15%,22%,13%,–,–,–,–,–
